Holding throughout (format): functional
Experiment [1] relates to NCI-H460. Kind of experiment: Cytotoxicity against human H460 cells.
The test system of experiment [2] is SF-268. Description: Cytotoxicity against human SF268 cells.
Experiment [3] concerns MCF7. Description: Cytotoxicity against human MCF7 cells.

Usually GI50 stands for the concentration that inhibits growth by half. Higher therefore signals less potent growth inhibition.

Consider `CC(=O)OC(C)(C)/C=C/C(=O)[C@](C)(O)[C@H]1[C@H](O)C[C@@]2(C)[C@@H]3CC=C4[C@@H](C[C@H](O)[C@@H](O)C4(C)C)[C@]3(C)C(=O)C[C@]12C`, for which the GI50 in experiment [1] was 0.065 µM; in experiment [2] it was 0.087 µM; in experiment [3], 0.11 µM.

As for `CC(C)(O)/C=C/C(=O)[C@](C)(O)[C@H]1[C@H](O)C[C@@]2(C)[C@@H]3CC=C4[C@@H](CCC(=O)C4(C)C)[C@]3(C)C(=O)C[C@]12C`, the GI50 in experiment [1] is 0.032 µM; in experiment [2], 0.21 µM; in experiment [3], 0.041 µM.

For `CC(C)(O)/C=C/C(=O)[C@](C)(O)[C@H]1[C@H](O)C[C@@]2(C)[C@@H]3CC=C4[C@@H](C[C@H](O)C(=O)C4(C)C)[C@]3(C)C(=O)C[C@]12C` [CUCURBITACIN D], the figures for the GI50 in experiment [1], in experiment [2] and in experiment [3] were 0.013 µM, 0.021 µM and 0.02 µM, respectively.

(Values after ChEMBL document CHEMBL1138432, “Cytotoxic cucurbitacin constituents from Sloanea zuliaensis” (2003).)
